Measurements: article PMC12516379, “Rotamer-Controlled Self-Immolative Linkers Enable Tunable Release of Neurosteroid Oxime Prodrugs” (ACS Medicinal Chemistry Letters, 2025)

Experiments:
[1] = Plasma stability assay via LC-MS/MS, rat plasma; assay type: in vitro ADME; conditions: read-out: t1/2 in rat plasma (Table S19) (converted)
Protocol: (§1) Building on our observation that rotamer control in the steric series can be modulated by enzymatic stabilization or activation, we next evaluated whether this effect was species dependent. To investigate this, we performed comparative stability studies by incubating select prodrugs (20a, 20b, 20l and 20t; Figure ) in mouse and rat plasma – two of the most commonly used preclinical species in drug development. This approach allowed us to assess the potential influence of species-specific enzymes on rotamer equilibria and, by extension, prodrug activation rates. The self-immolation profiles for the sterically tuned linker series (20a–b) reveal discernible, species-dependent differences prodrug stability. […] While the precise biochemical drivers remain unclear, this observation warrants further investigation beyond the scope of this work.
(§2) 1.2 Stability in Plasma and PBS via LCMS
(§3) Procaine (positive control) was purchased from Sigma-Aldrich. HPLC grade MeCN, MeOH, H2O, and FA were purchased from Fischer Scientific. Human plasma (cat. No. […]- […]
(§4) 0102242) were obtained from BIOIVT. DPBS 1X (no calcium, no magnesium, pH = 7.03) was purchased from Thermo Fischer Scientific. Stock solutions were prepared in 100% DMSO, and suitable dilutions of target analytes were prepared in 0.1% FA /MeCN for method development.
(§5) For PBS assay Gibco® Dulbecco’s phosphate-buffered saline (DPBS 1X, no calcium, no magnesium, pH = 7.03) was utilized. All experiments were performed in duplicate and results are presented as the average of two experimental replicates.
(§6) Procedure for Plasma Stability Assay
(§7) Test compounds and positive control (i.e. procaine) were dissolved in DMSO to make a 10 mM stock solution and subsequently diluted to 500 μM in 50% MeCN and PBS. This intermediate stock solution was prepared and added immediately prior to the start of each test compound experiment. Plasma was thawed at ambient temperature and aliquoted (663.0 μL) into 1.5 mL Eppendorf tubes. Plasma was incubated at 37 °C for 10 minutes in an incubator shaker at 150 rpm, and the reactions were initiated by addition of the test compound or positive control (4.0 µL, 3 μM). The spiked plasma samples were incubated at 37 °C. For designated time points, 75 µL aliquots were removed from the incubation mixture and immediately quenched in 150 µL of MeCN/0.1%FA with internal standard (ISTD, 2 µM d 5-7-ethoxy coumarin). […] The supernatant was transferred to an LC-MS vial and analyzed by LC/MS-MS. […]
(§8) LC–MS/MS analysis was performed using an Agilent 1260 Infinity II HPLC, coupled with an Agilent G6460 triple quadrupole mass spectrometer (Agilent Technologies, USA). All the data were acquired employing Agilent 6460 Quantitative Analysis data processing software. […]

[2] = PBS stability assay at 37 °C via LC-MS/MS; assay type: physicochemical; conditions: 37 °C; for half-life at 3 µM: pH 7.03, PBS
Protocol: (§10) To address this, prodrug stability was further evaluated in human plasma at 37 °C using liquid chromatography–tandem mass spectrometry (LC-MS/MS). For direct comparison, a parallel screen was conducted in PBS under identical conditions (Table ). To prevent premature degradation prior to LC-MS/MS analysis, acetonitrile containing formic acid was used as a quenching solution to acidify and stabilize the prodrugs in vials. […] This limitation in detection, along with the need for a more uniform and broadly applicable assessment across all compounds, prompted us to monitor the formation of the parent oxime as an alternative readout.
(§11) Stability experiments in human plasma and PBS were performed via liquid chromatography-tandem mass spectrometry (LC-MS/MS) to determine and compare rate of cleavage of progesterone prodrugs as well as selected allopregnanolone prodrugs (3 µM) when incubated at 37 °C. All experiments were performed in duplicate and results are presented as the average of two experimental replicates.

[3] = Stability in PBS at room temperature via HPLC (UV); assay type: physicochemical; conditions: phosphate-buffered saline (DPBS)
Procedure, shortened: (§9)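 Progesterone prodrugs dissolved at 1 mg/mL in PBS (pH 7.03) or 10 mM acetate buffer (pH 5.0), kept at RT and reinjected over time, HPLC-UV AUC at 254 nm. Percent parent remaining; k from ln(%remaining) vs time, pseudo-first-order t1/2 = 0.693/k; duplicates averaged.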

[4] = Stability in acetate buffer pH 5.0 at room temperature via HPLC (UV); assay type: physicochemical
Procedure, shortened: as §9

[5] = Plasma stability assay via LC-MS/MS, mouse plasma; assay type: in vitro ADME; conditions: read-out: t1/2 in mouse plasma (Table S20) (converted)
Protocol: as §1, §2, §3, §4, §5, §6, §7, §8

[6] = Plasma stability assay at 37 °C via LC-MS/MS, human plasma; assay type: in vitro ADME; conditions: for half-life at 3 µM: human, plasma;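 as to all read-outs here: prodrugs at 3 µM incubated in human plasma at 37 °C, intact prodrug quantified by LC-MS/MS over time, values are means of duplicate runs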
Protocol: as §10, §11

CNCCN(C)C(=O)O/N=C(\C)[C@H]1CC[C@H]2[C@@H]3CCC4=CC(=O)CC[C@]4(C)[C@H]3CC[C@]12C [20a]
half-life at 3 µM [1]: 3.88 h
PBS, 37 °C %rem. at 2h (Table S23) ([2]; PBS, 2 h): 77%
half-life at 3 µM ([2]; phosphate-buffered saline (DPBS), 3 µM, LC-MS/MS, read-out: t1/2 in PBS at 37 °C (Tables S14-S17) (converted)): 8.07 h
half-life at 3 µM ([2]; phosphate-buffered saline (DPBS), LC-MS/MS, read-out: Half-life (t½) PBS 37°C (converted)): 8.07 h
half-life at 3 µM ([2]; phosphate-buffered saline (DPBS), read-out: PBS, 37 °C t½ (Table S23) (converted)): 8.07 h
half-life at 3 µM ([2]; phosphate-buffered saline (DPBS), read-out: t1/2 (h) PBS, 37 °C (Tables S25, S26) (converted)): 8.07 h
remaining at 2 h, 3 µM ([2]; phosphate-buffered saline (DPBS), pH 7.03, PBS, 2 h, read-out: % Remaining @ 2h, PBS, 37 °C (Tables S25, S26)): 77%
half-life at 1 mg/mL ([3]; pH 7.03, DPBS pH 7.03, RT, 1 mg/mL, HPLC 254 nm, read-out: t1/2 in PBS buffer at RT (Tables S1-S4) (converted)): 46.9 ± 0.77 h
half-life at 1 mg/mL ([3]; pH 7.03, PBS, rt, HPLC (UV), read-out: Half-life (t½) PBS rt (converted)): 46.9 h
half-life at 1 mg/mL ([3]; pH 7.03, PBS, rt, read-out: t½: PBS, rt (Table S23) (converted)): 46.9 h
half-life at 1 mg/mL ([4]; pH 5, acetate buffer pH 5.0, RT, 1 mg/mL, HPLC 254 nm, read-out: t1/2 in acetate buffer at RT (Tables S5-S8) (converted)): > 168 h
half-life at 1 mg/mL ([4]; pH 5, acetate buffer pH 5.0, rt, HPLC (UV), read-out: Half-life (t½) pH 5.0 rt (converted)): > 168 h
half-life at 1 mg/mL ([4]; pH 5, acetate buffer pH 5.0, rt, read-out: t½: pH 5.0, rt (Table S23) (converted)): > 168 h
half-life at 3 µM [5]: 4.7 h
t1/2 in human plasma at 37 °C (Tables S10-S13, S18) ([6]; 3 µM, LC-MS/MS): 2.45 h
Plasma, 37 °C %rem. at 2h (Table S23) ([6]; 2 h): 73%
half-life at 3 µM ([6]; 3 µM, LC-MS/MS, read-out: t1/2 in human plasma at 37 °C (Tables S10-S13, S18) (converted)): 3.14 h
half-life at 3 µM ([6]; LC-MS/MS, read-out: Half-life (t½) Plasma 37°C (converted)): 2.49 h
half-life at 3 µM ([6]; read-out: Plasma, 37 °C t½ (Table S23) (converted)): 2.45 h
